Assay [1] addresses T1, full length human OGT (ncOGT) (Homo sapiens, UniProt O15294).
T1 construct: made in house
T1 sequence (O15294 1-1046): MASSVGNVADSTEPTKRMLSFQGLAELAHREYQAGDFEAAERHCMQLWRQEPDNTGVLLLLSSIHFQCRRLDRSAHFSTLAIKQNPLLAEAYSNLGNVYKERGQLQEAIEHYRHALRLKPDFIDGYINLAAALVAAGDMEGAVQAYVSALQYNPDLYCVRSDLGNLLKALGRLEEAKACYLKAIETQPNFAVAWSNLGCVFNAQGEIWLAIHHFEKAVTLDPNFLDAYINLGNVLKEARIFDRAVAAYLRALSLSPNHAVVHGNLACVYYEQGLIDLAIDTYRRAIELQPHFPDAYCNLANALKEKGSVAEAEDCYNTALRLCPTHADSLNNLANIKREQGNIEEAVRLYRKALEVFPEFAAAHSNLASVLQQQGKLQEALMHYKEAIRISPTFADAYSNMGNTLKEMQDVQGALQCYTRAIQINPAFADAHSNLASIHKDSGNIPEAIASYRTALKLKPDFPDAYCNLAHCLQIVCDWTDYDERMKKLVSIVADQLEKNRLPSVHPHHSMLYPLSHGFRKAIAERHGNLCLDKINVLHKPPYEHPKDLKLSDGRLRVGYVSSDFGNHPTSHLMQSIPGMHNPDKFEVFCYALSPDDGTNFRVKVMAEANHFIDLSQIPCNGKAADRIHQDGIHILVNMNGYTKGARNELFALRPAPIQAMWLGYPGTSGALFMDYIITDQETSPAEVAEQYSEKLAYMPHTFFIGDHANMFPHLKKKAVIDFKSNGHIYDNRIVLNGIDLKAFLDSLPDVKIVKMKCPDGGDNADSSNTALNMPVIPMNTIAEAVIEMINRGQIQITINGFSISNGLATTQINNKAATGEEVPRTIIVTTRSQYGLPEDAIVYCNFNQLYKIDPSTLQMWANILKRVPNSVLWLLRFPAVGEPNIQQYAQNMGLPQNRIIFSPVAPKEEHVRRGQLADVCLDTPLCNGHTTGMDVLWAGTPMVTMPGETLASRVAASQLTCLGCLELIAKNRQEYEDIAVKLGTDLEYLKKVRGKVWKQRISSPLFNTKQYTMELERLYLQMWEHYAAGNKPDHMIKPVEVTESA
The assay is described as follows: UDP-Glo luminescence-based coupled enzyme assay. Format: biochemical. As to the method:
UDP-Glo assay: Materials for this assay were obtained from Promega (catalog #V6961), and the experiment was performed largely as outlined by the manufacturer. IC50 values were determined in the range of 0 to 100 μM (eleven concentration points). Assays were performed either in white, 96-well or ½-volume 96-well, plates. This assay was run with 125 μM CKII3K peptide acceptor. Reaction volumes were between 14 (half volume plates) and 20 (normal volume plates) μL. Reactions contained the following components: 300 nM ncOGT, 125 μM CKII3K and 40 μM UDP-GlcNAc in 1× PBS pH 7.4 supplemented with 1 mM THP. Reactions were incubated for one hour at 25° C. and quenched by the addition of an equal volume of UDP-Glo nucleotide detection reagent, prepared and used according to manufacturer guidelines. The quenched reactions were then mixed briefly by shaking at 1800 rpm in a Thermomixer C, and incubated for one hour at room temperature prior to reading luminescence, as per the manufacturers guidelines. Data were analyzed by Microsoft Excel and Prism 6 (Graphpad). When evaluating the effect of sugar donor concentration, this parameter was varied, while all other conditions remained as described above. Each sample in this case was run in duplicate, unless otherwise specified. The 40 μM curve in FIG. 16C has each point in quadruplicate. Similarly, there is an n=9 for each point in the OSMI-1 curve in FIG. 16B.

In assay [2] the test system is cell surface glycans of CHO cells. Put plainly: Lectin blots of cell surface glycans of CHO cells. The assay is classed as cell-based, Chinese hamster. The following applies: 50 μM, 24 hours. As to the method:
Lectin blots were performed with the CHO-K1 cell lysate as prepared above. […] The biotin label on the lectins was visualized with incubation with Streptavidin-HRP (Pierce) followed by ECL detection and imaging.

The next assay deals with LNCaP cells. Put plainly: LNCaP cell viability and c-Myc stability. The following applies: 50 μM. The assay is classed as cell-based, human. The procedure: (§1) The sample was separated by SDS-PAGE (Bio-Rad 4-15%, Cat: 345-0028), transferred to a nitrocellulose membrane (iBlot, Invitrogen) and probed with the indicated antibody. Tyipcally, membranes were blocked with 4% BSA in 1× TBS+0.04% tween-20 for 1 hour before incubating with antibody (typically diluted 1:1000 in 4% BSA inlx TBS+0.04% tween-20) overnight at 4° C. Membranes were then washed three times with 1× TBS+0.04% tween-20 and incubated with secondary antibody (typically diluted 1:5000 in 4% BSA in 1× TBS+0.04% tween-20) for 1 hour at room temperature. Lastly, membranes were washed 3× with 1× TBS+0.04% tween-20 and imaged with ECL. D283-Med cells were treated as above but grown in F12-K media supplemented with 10% FBS and antibiotics. HEK, HeLa and LNCaP cells were treated as above but grown in RPMI media supplemented with 10% FBS and antibiotics.
Cell viability, cytotoxicity and apoptosis signaling assays were performed in a 96-well plate using ApoTox-Glo reagent (Promega) according to the manufacturer's instructions.

Another assay relates to OGT in CHO cells. Put plainly: Markers of OGT inhibition in CHO cells (Nup62 mass shift, OGA levels, H2B-S112 O-GlcNAc). The assay is classed as cell-based, Chinese hamster. As to the method: In vivo inhibition of glycosylation: For all immunoblotting experiments, CHO-K1 (CHO) cells were grown in F12-K media supplemented with 10% FBS and antibiotics at 37° C. in a 5% CO2 incubator. Cells were treated by adding indicated inhibitor in DMSO vehicle (0.5% final vehicle concentration) upon reaching 70% confluence. After indicated treatment length, cells were harvested by aspirating growth media and washing with ice cold 1× PBS. Cells were subsequently lysed in boiling 1% SDS/20 mM HEPES 7.9. After cooling to room temperature, 1 mM PMSF, 10 μM PUGNAC, 10 μM TMG and 1× Complete protease inhibitor cocktail were added to the solution. The mixture was sonicated and then subjected to a 5 minute incubation at 95° C. The samples were centrifuged for 15 minutes at 20,000×g and the supernatant was collected and the total protein was measured by BCA assay (BIO-RAD).
as §1

Molecules are shown by their SMILES.

Usually IC50 stands for the concentration that gives 50% inhibition. `COc1ccccc1[C@@H](NS(=O)(=O)c1ccc2[nH]c(=O)ccc2c1)C(=O)N(Cc1ccco1)Cc1cccs1` [OSMI-1, (R)—N-(furan-2-ylmethyl)-2-(2-methoxyphenyl)-2-(2-oxo-1,2-dihydroquinoline-6-sulfonamido)-N-(thiophen-2-ylmethyl)acetamide]: the IC50 in assay [1] (40 μM UDP-GlcNAc, 125 μM CKII3K peptide, read-out: IC50 against ncOGT, coupled enzyme assay) was determined as 2700 nM. Besides, in assay [1] (various UDP-GlcNAc concentrations), the “Mode of inhibition with respect to UDP-GlcNAc” value is listed as “did not act competitively”. Also, the “Changes in bands detected by ConA, PHA-L, ECL, GSL-I, PNA or DBA” value in assay [2] was “minimal changes”. Further, the LNCaP cell viability entry with LNCaP cells (48 hrs) is on record as “decrease in cell viability”. Besides, in the assay with LNCaP cells (LNCaP cells, 6 and 48 hours), the c-Myc stability entry was “decreases c-Myc stability”. For the same molecule, in the assay with OGT in CHO cells, the “Cellular OGA levels” value is “reduced cellular OGA”, the Nup62 mass shift entry was “shift to a lower molecular weight” and the “O-GlcNAc modification of histone H2B-S112” value is on record as “greatly reduced”.
